Earlier results, collected in patent US7927486B2, “Polymer modified porous substrate for solid phase extraction” (priority 2005, dated 2011).

CCCCNCC(O)c1ccc(O)cc1.CCCCNCC(O)c1ccc(O)cc1.O=S(=O)(O)O (stereo not shown) [Bamathan hemisulfate]
Log P: 1.29
